These are literature values, as cited in patent publication US20040253138A1, “Plasmon enhanced body treatment and bacterial management” (American Environmental Systems, Inc., priority 2003, published 2004).

SMILES strings stand for the structures. Where two headings read alike, the source gives them in different places.

The series deals with E. coli (E. coli-B (SR-9) and E. coli K-12). The conditions noted are these: one hour exposure.

Consider `OO` [hydrogen peroxide], for which the logs of inactivation (30 ppm hydrogen peroxide) is listed as 0.65 logs.

For the molecule `[Ag+]` [silver], the logs of inactivation (30 ppb silver) was 2.87 logs.
